Where two headings read alike, the source gives them in different places.
Legend:
[1] = test system: Sprague-Dawley rats; assay: Bronchosecretogogue activity, Mawatari test; assay type: in vivo; conditions: rat
Text: The bronchosecretogogue activity of YS-869 was evalued by the test of Mawatari in Sprague-Dawley rats (Mawatari H. "Experimental Studies on the expectorant action of several drugs" - Kagoshima Daiga ken Igaken Zasshi. 27, 561, 1976), in comparison with known drugs.
This method consists in determinating the amount of […] eliminated with the fluid in the respiratory tract.

[2] = test system: rats; assay type: in vivo; conditions: 200 mg/kg p.o.
Procedure: The gastro-injuring activity was determined by administering rats with equimolecular dosages of YS-869 and acetylsalicylic acid (252 mg/kg and 200 mg/kg respectively).

[3] = test system: rat paw; assay: Antiinflammatory activity, carrageenin oedema in rat paw; assay type: in vivo; conditions: for Paw volume 2 h / Paw volume 4 h / Paw volume 6 h / Paw volume 8 h / Paw volume 24 h / Paw volume Basal: mean ± S.E.; for AREA % M±E.S.: area of the paw volume curve; for AREA Inhibition versus control: oedema inhibiting activity
Procedure: The antiinflammatory activity of YS-869 in comparison with acetylsalicylic acid was evaluated by the test of oedema induced by carrageening injection in rat paw (Winter, Rissly, Ness.; Proc. Soc. Exp. Biol. Med., Ill, 544-47 - 1962).

[4] = test system: rabbit; assay: Antitussive activity, citric acid induced cough; assay type: in vivo
Text: The antitussive activity of YS-869 was evalued by the citric acid test in the rabbit (Boura et al., Prog. Brit. Pharmac. Soc. Communications, April 1970), in comparison with codeine.
Such method consists in counting the coughs stro kes caused in the animal by the nebulization of a citric acid solution.

[5] = Solubility in organic solvents; conditions: common organic solvents

## Nc1c(Br)cc(Br)cc1CN[C@H]1CC[C@H](O)CC1 [AMBROXOL, Ambroxol]
[1]; 50 mg/kg i.p.
  Fl Na: 0.36 ± 0.037 µg/mL
  Fl Na % increase versus contr.: 28.6%

## CC(=O)Oc1ccccc1C(=O)O [Acetyl-salicy-lic acid, acetylsalicylic acid]
[2]
  ULCERS (gastric ulcers average size): 27.7±6.37 mm
[2]; listed as acetylsalicylic acid
  ULCERS (gastric ulcers average size): 27.7 mm
[3]; 200 mg/kg p.o.
  Paw volume 2 h: 43.5 ±1.5 ml/10
  Paw volume 4 h: 49.3 ±2.0 ml/10
  Paw volume 6 h: 51.4 ±1.7 ml/10
  Paw volume 8 h: 51.5 ±2.0 ml/10
  Paw volume 24 h: 42.8 ±1.7 ml/10
  AREA % M±E.S.: 151.38 ±13.1%
  Paw volume Basal: 36.1 ±1.1 ml/10
  AREA Inhibition versus control: 26.94%

## COc1ccc2c3c1O[C@H]1[C@@H](O)C=C[C@H]4[C@@H](C2)N(C)CC[C@@]341 [CODEINE, codeine]
[4]; 25 mg/kg i.p.
  % inhibition versus control: 70.4%

## N[C@@H](CSCC(=O)O)C(=O)O [S-CARBOXY-METHYL-CY-STEINE, S-carboxymethyl-cysteine]
[1]; 500 mg/kg i.p.
  Fl Na: 0.41 ± 0.036 µg/mL
  Fl Na % increase versus contr.: 46.4%

## O=C(NC1CCSC1=O)c1cccs1 (stereo not drawn) [YS-869, N-(2-thenoyl)-N-(2-keto-2,3,4,5-tetrahydro-thiophene-3-yl)amine]
[1]; 500 mg/kg i.p.
  Fl Na: 0.42 ± 0.0450 µg/mL
[1]; 500 mg/kg i.p., 500 mg/kg
  Fl Na % increase versus contr.: 50%
[4]; 100 mg/kg i.p.
  % inhibition versus control: 21.5%
[3]; 252 mg/kg p.o.
  Paw volume 2 h: 48.2 ±1.2 ml/10
  Paw volume 4 h: 54.1 ±2.3 ml/10
  Paw volume 6 h: 52.1 ±2.9 ml/10
  Paw volume 8 h: 51.4 ±2.5 ml/10
  Paw volume 24 h: 41 ±1.4 ml/10
  AREA % M±E.S.: 165.21 ±13.1%
  Paw volume Basal: 36.8 ±1.0 ml/10
  AREA Inhibition versus control: 20.26%
[5]
  solubility: soluble in common organic solvents
